Data published in patent US20050043247A1, “Spray-dried amorphous BIBN 4096, process for preparing and the use thereof as inhalative” (Boehringer Ingelheim International GmbH, priority 2003, published 2005).

Columns and labels:
[1] = Determining the specific surface area (multi point BET, nitrogen); format: physicochemical; conditions: spray-dried microparticles from ethanol solution; 16 point BET
Experimental: b) Determining the Specific Surface Area:
Measuring method: The specific surface is determined by exposing the powder sample to a nitrogen atmosphere at different pressures. Cooling the sample causes the nitrogen molecules to be condensed on the surface of the particles. The quantity of condensed nitrogen is determined by means of the drop in pressure in the system and the surface of the sample is calculated by means of the surface nitrogen requirement and the weight of the sample.
Measuring device: Tri Star Multi Point BET, Messrs. Micromeritics
Heating station: VacPrep 061, Messrs. Micromeritics
Heating: approx. 12 h /40° C.

[2] = Bioavailability after administration by inhalation as powder inhalant; conditions: in vivo, inhaled or intranasal; administered by inhalation as powder inhalant; based on the fine content of the formulation (FPD, fine particle dose, USP 24 Suppl. 2000)
[3] = Determining the particle size by laser diffraction (Frauenhofer diffraction); format: physicochemical
Text: a) Determining the Particle Size by Laser Diffraction (Frauenhofer Diffraction):
Measuring method: In order to determine the particle size the powder is fed into a laser diffraction spectrometer using a dispersing unit. The median value X50 refers to the particle size below which 50% of the quantity of particles fall. The Q(5.8) value describes the percentage of particles which are less than 5.8 μm in size.
Measuring device: Laser diffraction spectrometer (HELOS), Messrs. Sympatec
Dispersing unit: RODOS/dispersing pressure: 3 bar
Focal length: 100 mm [measuring range: 0.9 . . . 175 μm]
Evaluation method: HRLD (V 4)

[4] = conventional formulations; cited from earlier work
[5] = Stability of the amorphous state; format: physicochemical; conditions: normal conditions (T<50° C., relative humidity<75%); microparticles

Specific surface area Sm [1]: 21.5 m^2/g
bioavailability [2]: ~60%
Particle size X50 ([3]; spray-dried microparticles from 0.5 g (A) in 100 mL ethanol, median particle size, RODOS dispersing pressure 3 bar): 1.2 μm
Particle size Q(5.8) ([3]; spray-dried microparticles from ethanol solution, percentage of particles less than 5.8 μm in size): 99.5%
stability in the amorphous state [5]: stable in the amorphous state
SMILES: NCCCC[C@H](NC(=O)[C@@H](Cc1cc(Br)c(O)c(Br)c1)NC(=O)N1CCC(N2Cc3ccccc3NC2=O)CC1)C(=O)N1CCN(c2ccncc2)CC1 [A, 1-[N^2-[3,5-dibromo-N-[[4-(3,4-dihydro-2(1H)-oxoquinazolin-3-yl)-1-piperidinyl]carbonyl]-D-tyrosyl]-L-lysyl]-4-(4-pyridinyl)-piperazine]
oral bioavailability [4]: very limited oral bioavailability
